Key:
Conditions in all cases: Compound concentration 10 µM
[1] = molecular target: Sodium-dependent serotonin transporter (Homo sapiens) (UniProt P31645)
Description: PDSP Primary Binding target: SLC6A4 - Compounds are tested at 10 uM concentration, plate are incubated at room temperature in the dark for 90 minutes. Reaction are stopped by vacuum filtration onto 0.3% polyethyleneimine soaked filter mats using Filtermate harvester. Scintilation cocktail is then melted onto microwave-dried filters on a hot plate and the radio activity is counted in Microbia counter.

[2] = molecular target: D(2) dopamine receptor (Homo sapiens) (UniProt P14416)
Description: PDSP Primary Binding target: DRD2 - Compounds are tested at 10 uM concentration, plate are incubated at room temperature in the dark for 90 minutes. Reaction are stopped by vacuum filtration onto 0.3% polyethyleneimine soaked filter mats using Filtermate harvester. Scintilation cocktail is then melted onto microwave-dried filters on a hot plate and the radio activity is counted in Microbia counter.

[3] = molecular target: T1, 5-hydroxytryptamine receptor 1A (Homo sapiens) (UniProt P08908)
T1 sequence (whole entry): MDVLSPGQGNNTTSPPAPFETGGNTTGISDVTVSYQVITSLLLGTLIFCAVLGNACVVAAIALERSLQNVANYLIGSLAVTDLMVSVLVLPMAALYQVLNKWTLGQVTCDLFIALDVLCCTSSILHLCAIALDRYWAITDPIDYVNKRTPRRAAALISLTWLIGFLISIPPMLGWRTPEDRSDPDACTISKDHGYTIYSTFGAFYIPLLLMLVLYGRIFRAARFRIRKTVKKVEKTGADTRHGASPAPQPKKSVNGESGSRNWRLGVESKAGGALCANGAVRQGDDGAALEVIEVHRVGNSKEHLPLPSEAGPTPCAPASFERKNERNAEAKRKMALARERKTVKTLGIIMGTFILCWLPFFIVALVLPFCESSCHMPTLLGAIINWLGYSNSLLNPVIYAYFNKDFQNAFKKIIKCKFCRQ
Description: PDSP Primary Binding target: HTR1A - Compounds are tested at 10 uM concentration, plate are incubated at room temperature in the dark for 90 minutes. Reaction are stopped by vacuum filtration onto 0.3% polyethyleneimine soaked filter mats using Filtermate harvester. Scintilation cocktail is then melted onto microwave-dried filters on a hot plate and the radio activity is counted in Microbia counter.

[4] = molecular target: Beta-1 adrenergic receptor (Homo sapiens) (UniProt P08588)
Beta-1 adrenergic receptor (Homo sapiens), sequence (P08588 whole entry, looked up): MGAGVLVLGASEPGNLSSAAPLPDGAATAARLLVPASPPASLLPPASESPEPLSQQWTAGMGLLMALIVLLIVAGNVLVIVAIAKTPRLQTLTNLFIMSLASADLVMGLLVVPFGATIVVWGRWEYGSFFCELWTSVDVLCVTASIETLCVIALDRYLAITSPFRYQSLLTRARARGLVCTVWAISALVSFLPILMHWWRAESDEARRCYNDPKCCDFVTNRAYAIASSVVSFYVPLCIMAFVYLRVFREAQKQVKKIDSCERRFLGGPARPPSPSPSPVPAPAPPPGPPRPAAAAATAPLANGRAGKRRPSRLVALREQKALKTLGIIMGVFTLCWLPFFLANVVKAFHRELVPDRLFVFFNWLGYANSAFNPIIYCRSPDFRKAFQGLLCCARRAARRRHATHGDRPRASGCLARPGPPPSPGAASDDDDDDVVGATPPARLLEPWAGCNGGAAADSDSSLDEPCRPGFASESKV
Description: PDSP Primary Binding target: ADRB1 - Compounds are tested at 10 uM concentration, plate are incubated at room temperature in the dark for 90 minutes. Reaction are stopped by vacuum filtration onto 0.3% polyethyleneimine soaked filter mats using Filtermate harvester. Scintilation cocktail is then melted onto microwave-dried filters on a hot plate and the radio activity is counted in Microbia counter.

[5] = molecular target: Muscarinic acetylcholine receptor M3 (Homo sapiens) (UniProt P20309)
Muscarinic acetylcholine receptor M3 (Homo sapiens), sequence (P20309 whole entry, looked up): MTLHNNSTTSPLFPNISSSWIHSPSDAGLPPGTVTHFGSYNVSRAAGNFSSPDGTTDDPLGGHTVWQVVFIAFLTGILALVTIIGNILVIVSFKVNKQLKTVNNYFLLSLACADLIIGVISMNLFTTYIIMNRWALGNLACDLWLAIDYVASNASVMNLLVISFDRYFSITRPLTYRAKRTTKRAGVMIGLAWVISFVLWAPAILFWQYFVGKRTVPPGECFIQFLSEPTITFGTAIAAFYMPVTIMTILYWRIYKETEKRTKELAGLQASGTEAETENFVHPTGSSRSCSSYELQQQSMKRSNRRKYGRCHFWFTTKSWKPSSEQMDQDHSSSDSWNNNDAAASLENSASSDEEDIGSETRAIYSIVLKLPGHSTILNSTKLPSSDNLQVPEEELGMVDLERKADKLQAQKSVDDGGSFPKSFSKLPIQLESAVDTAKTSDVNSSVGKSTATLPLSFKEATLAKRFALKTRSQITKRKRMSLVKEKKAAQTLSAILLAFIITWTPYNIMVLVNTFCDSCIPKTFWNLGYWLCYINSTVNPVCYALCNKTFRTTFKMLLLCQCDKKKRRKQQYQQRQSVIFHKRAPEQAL
Description: PDSP Primary Binding target: CHRM3 - Compounds are tested at 10 uM concentration, plate are incubated at room temperature in the dark for 90 minutes. Reaction are stopped by vacuum filtration onto 0.3% polyethyleneimine soaked filter mats using Filtermate harvester. Scintilation cocktail is then melted onto microwave-dried filters on a hot plate and the radio activity is counted in Microbia counter.

[6] = molecular target: T2, Alpha-1A adrenergic receptor (Homo sapiens) (UniProt P35348)
T2 sequence (whole entry): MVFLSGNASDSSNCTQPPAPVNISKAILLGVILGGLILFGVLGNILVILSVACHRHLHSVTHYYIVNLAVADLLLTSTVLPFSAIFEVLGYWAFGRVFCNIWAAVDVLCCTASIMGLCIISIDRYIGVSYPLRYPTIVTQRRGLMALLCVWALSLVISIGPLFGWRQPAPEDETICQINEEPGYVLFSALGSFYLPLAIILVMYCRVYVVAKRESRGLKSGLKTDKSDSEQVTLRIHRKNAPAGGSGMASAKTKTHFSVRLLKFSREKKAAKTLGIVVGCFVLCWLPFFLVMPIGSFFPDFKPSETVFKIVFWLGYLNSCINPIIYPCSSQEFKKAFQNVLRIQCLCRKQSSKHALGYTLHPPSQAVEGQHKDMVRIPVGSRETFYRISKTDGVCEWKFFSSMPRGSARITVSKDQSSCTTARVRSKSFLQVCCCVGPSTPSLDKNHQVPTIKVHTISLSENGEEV
Description: PDSP Primary Binding target: ADRA1A - Compounds are tested at 10 uM concentration, plate are incubated at room temperature in the dark for 90 minutes. Reaction are stopped by vacuum filtration onto 0.3% polyethyleneimine soaked filter mats using Filtermate harvester. Scintilation cocktail is then melted onto microwave-dried filters on a hot plate and the radio activity is counted in Microbia counter.

[7] = molecular target: Mu-type opioid receptor (Homo sapiens) (UniProt P35372)
Mu-type opioid receptor (Homo sapiens), sequence (P35372 whole entry): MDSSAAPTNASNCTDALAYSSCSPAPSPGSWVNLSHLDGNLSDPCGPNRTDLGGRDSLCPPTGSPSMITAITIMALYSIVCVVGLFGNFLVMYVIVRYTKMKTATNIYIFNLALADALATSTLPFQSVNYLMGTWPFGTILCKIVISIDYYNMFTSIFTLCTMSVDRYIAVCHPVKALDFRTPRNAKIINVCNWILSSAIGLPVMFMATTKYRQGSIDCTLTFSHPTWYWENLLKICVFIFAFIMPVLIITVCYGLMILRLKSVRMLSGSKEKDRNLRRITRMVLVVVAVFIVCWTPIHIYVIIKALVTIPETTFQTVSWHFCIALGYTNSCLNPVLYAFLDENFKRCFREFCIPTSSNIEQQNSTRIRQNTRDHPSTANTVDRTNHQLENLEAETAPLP
Description: PDSP Primary Binding target: OPRM1 - Compounds are tested at 10 uM concentration, plate are incubated at room temperature in the dark for 90 minutes. Reaction are stopped by vacuum filtration onto 0.3% polyethyleneimine soaked filter mats using Filtermate harvester. Scintilation cocktail is then melted onto microwave-dried filters on a hot plate and the radio activity is counted in Microbia counter.

[8] = molecular target: D(1B) dopamine receptor (Homo sapiens) (UniProt P21918)
D(1B) dopamine receptor (Homo sapiens), sequence (P21918 whole entry): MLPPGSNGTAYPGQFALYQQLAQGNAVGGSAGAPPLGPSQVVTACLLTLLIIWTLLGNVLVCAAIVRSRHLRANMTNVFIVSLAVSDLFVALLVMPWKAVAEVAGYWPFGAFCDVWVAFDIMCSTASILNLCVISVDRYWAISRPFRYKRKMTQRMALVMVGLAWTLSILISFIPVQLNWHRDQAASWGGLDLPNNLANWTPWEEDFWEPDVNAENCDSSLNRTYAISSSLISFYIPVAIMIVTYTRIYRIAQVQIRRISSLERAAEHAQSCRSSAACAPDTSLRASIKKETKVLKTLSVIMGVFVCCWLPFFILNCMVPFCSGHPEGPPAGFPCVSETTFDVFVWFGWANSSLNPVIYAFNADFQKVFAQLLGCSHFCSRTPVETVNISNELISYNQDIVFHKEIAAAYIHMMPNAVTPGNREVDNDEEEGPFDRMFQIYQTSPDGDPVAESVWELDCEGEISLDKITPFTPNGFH
Description: PDSP Primary Binding target: DRD5 - Compounds are tested at 10 uM concentration, plate are incubated at room temperature in the dark for 90 minutes. Reaction are stopped by vacuum filtration onto 0.3% polyethyleneimine soaked filter mats using Filtermate harvester. Scintilation cocktail is then melted onto microwave-dried filters on a hot plate and the radio activity is counted in Microbia counter.

[9] = molecular target: 5-hydroxytryptamine receptor 6 (Homo sapiens) (UniProt P50406)
5-hydroxytryptamine receptor 6 (Homo sapiens), sequence (P50406 whole entry): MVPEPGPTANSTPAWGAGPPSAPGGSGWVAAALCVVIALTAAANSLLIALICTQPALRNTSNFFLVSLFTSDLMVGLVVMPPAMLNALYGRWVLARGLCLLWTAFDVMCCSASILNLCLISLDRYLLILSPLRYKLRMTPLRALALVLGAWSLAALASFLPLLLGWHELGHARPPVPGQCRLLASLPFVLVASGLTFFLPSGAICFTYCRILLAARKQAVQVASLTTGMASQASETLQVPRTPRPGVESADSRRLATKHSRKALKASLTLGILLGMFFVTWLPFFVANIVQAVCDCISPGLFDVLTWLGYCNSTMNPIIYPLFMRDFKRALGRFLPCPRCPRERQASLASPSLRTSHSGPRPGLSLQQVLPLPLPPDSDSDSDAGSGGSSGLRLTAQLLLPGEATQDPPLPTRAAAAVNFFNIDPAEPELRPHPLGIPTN
Description: PDSP Primary Binding target: HTR6 - Compounds are tested at 10 uM concentration, plate are incubated at room temperature in the dark for 90 minutes. Reaction are stopped by vacuum filtration onto 0.3% polyethyleneimine soaked filter mats using Filtermate harvester. Scintilation cocktail is then melted onto microwave-dried filters on a hot plate and the radio activity is counted in Microbia counter.

[10] = molecular target: T3, Muscarinic acetylcholine receptor M4 (Homo sapiens) (UniProt P08173)
T3 sequence (whole entry): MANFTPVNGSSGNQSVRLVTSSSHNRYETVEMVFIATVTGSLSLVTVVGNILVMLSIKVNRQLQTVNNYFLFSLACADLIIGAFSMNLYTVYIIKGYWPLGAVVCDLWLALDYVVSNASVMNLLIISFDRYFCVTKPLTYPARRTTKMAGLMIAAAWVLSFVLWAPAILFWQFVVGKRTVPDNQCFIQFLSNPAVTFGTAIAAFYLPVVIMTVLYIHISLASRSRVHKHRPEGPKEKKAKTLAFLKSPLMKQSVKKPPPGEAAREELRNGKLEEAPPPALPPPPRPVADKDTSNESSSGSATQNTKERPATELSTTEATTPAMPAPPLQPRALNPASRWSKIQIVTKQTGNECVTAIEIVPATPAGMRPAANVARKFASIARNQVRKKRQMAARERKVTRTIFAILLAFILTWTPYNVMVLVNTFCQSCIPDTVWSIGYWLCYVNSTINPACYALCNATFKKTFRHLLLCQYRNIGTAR
Description: PDSP Primary Binding target: CHRM4 - Compounds are tested at 10 uM concentration, plate are incubated at room temperature in the dark for 90 minutes. Reaction are stopped by vacuum filtration onto 0.3% polyethyleneimine soaked filter mats using Filtermate harvester. Scintilation cocktail is then melted onto microwave-dried filters on a hot plate and the radio activity is counted in Microbia counter.

[11] = molecular target: T4, Alpha-1B adrenergic receptor (Homo sapiens) (UniProt P35368)
T4 sequence (whole entry): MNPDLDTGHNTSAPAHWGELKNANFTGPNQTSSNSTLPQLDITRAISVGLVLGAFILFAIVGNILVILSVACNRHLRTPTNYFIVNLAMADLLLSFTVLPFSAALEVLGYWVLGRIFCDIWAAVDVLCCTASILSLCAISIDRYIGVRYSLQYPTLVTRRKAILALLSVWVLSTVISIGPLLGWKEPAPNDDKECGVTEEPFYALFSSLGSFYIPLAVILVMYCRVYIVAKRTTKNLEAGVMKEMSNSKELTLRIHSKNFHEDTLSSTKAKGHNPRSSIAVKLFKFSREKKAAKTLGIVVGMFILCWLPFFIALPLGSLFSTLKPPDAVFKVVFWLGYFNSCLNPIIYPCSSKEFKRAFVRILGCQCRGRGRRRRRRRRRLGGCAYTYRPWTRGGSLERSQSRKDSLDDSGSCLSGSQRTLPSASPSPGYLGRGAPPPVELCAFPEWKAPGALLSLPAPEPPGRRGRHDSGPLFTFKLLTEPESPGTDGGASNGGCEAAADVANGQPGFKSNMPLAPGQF
Description: PDSP Primary Binding target: ADRA1B - Compounds are tested at 10 uM concentration, plate are incubated at room temperature in the dark for 90 minutes. Reaction are stopped by vacuum filtration onto 0.3% polyethyleneimine soaked filter mats using Filtermate harvester. Scintilation cocktail is then melted onto microwave-dried filters on a hot plate and the radio activity is counted in Microbia counter.

[12] = molecular target: Histamine H3 receptor (Homo sapiens) (UniProt Q9Y5N1)
Histamine H3 receptor (Homo sapiens), sequence (Q9Y5N1 whole entry): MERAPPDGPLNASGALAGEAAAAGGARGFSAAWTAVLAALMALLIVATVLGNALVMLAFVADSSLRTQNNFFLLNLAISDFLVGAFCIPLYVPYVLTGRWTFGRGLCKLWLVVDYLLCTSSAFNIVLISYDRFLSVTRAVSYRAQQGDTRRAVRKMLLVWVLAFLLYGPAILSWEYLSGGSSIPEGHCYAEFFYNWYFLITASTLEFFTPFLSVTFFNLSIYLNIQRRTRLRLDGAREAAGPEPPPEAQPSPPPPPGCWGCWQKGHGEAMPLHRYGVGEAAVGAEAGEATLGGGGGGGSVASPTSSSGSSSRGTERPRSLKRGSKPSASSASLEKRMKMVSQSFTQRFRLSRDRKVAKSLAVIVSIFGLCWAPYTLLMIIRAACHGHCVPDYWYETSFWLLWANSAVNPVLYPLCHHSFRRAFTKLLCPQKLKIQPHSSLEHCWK
Description: PDSP Primary Binding target: HRH3 - Compounds are tested at 10 uM concentration, plate are incubated at room temperature in the dark for 90 minutes. Reaction are stopped by vacuum filtration onto 0.3% polyethyleneimine soaked filter mats using Filtermate harvester. Scintilation cocktail is then melted onto microwave-dried filters on a hot plate and the radio activity is counted in Microbia counter.

[13] = molecular target: T5, Alpha-2B adrenergic receptor (Homo sapiens) (UniProt P18089)
T5 sequence (whole entry): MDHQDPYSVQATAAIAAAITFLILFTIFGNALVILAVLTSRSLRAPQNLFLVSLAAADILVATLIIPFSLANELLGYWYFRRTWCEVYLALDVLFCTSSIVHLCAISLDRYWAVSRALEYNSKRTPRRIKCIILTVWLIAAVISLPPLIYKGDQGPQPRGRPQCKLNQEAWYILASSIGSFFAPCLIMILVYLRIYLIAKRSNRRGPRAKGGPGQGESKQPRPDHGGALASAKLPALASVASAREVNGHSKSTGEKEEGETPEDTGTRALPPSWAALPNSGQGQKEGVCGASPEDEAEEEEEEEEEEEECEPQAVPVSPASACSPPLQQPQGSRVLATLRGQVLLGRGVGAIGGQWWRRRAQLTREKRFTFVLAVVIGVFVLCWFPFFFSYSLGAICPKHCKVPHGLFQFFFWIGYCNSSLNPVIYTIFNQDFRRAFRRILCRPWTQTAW
Description: PDSP Primary Binding target: ADRA2B - Compounds are tested at 10 uM concentration, plate are incubated at room temperature in the dark for 90 minutes. Reaction are stopped by vacuum filtration onto 0.3% polyethyleneimine soaked filter mats using Filtermate harvester. Scintilation cocktail is then melted onto microwave-dried filters on a hot plate and the radio activity is counted in Microbia counter.

[14] = molecular target: D(1A) dopamine receptor (Homo sapiens) (UniProt P21728)
D(1A) dopamine receptor (Homo sapiens), sequence (P21728 whole entry): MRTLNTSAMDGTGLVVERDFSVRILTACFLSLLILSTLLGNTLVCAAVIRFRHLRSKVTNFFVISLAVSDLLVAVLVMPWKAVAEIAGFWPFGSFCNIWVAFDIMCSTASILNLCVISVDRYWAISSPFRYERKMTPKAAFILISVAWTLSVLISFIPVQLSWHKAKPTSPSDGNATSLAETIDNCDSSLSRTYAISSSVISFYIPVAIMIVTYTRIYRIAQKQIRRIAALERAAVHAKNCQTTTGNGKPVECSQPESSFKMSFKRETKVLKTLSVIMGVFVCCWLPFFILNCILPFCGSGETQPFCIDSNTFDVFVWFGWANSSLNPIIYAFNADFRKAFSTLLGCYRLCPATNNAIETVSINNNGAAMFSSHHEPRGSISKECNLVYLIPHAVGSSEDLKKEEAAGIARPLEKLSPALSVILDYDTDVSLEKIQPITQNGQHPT
Description: PDSP Primary Binding target: DRD1 - Compounds are tested at 10 uM concentration, plate are incubated at room temperature in the dark for 90 minutes. Reaction are stopped by vacuum filtration onto 0.3% polyethyleneimine soaked filter mats using Filtermate harvester. Scintilation cocktail is then melted onto microwave-dried filters on a hot plate and the radio activity is counted in Microbia counter.

Sodium-dependent serotonin transporter (Homo sapiens), sequence (P31645 whole entry, looked up): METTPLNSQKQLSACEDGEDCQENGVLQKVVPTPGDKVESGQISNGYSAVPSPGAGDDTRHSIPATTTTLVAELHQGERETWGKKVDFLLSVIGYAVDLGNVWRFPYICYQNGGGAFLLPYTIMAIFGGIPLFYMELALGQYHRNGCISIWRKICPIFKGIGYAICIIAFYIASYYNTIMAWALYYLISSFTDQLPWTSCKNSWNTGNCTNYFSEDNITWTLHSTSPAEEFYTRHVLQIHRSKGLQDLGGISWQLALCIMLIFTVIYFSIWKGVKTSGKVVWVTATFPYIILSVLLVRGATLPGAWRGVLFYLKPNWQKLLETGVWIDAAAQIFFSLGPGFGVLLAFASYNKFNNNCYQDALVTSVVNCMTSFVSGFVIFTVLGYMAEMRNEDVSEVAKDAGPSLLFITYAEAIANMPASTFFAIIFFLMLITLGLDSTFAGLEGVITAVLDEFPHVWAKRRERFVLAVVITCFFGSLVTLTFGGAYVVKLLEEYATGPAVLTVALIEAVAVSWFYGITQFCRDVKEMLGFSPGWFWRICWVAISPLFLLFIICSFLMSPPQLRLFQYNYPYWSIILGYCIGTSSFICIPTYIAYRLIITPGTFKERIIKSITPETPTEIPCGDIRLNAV
D(2) dopamine receptor (Homo sapiens), sequence (P14416 whole entry): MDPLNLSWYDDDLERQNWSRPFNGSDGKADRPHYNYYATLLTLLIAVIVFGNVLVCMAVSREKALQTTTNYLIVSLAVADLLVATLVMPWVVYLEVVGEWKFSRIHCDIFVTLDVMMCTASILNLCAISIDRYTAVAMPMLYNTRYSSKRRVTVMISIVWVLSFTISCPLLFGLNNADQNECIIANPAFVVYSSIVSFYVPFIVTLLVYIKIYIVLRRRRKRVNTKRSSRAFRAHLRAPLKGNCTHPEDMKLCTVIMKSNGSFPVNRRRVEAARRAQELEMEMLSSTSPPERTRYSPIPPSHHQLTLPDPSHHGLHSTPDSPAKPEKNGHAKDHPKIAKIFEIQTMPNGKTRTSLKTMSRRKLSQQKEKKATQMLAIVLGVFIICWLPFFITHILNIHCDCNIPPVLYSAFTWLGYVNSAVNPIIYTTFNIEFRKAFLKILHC

Compound: FC(F)(F)c1c(N2CCC(c3ccccc3)CC2)ccn2c(CC3CC3)nnc12
- inhibition [1]: 42.4%
- inhibition [2]: 26%
- inhibition [3]: -5.72%
- inhibition [4]: 22.1%
- inhibition [5]: -8.34%
- inhibition [6]: -6.36%
- inhibition [7]: 19.7%
- inhibition [8]: -0.45%
- inhibition [9]: -9.81%

Compound: N#Cc1ccc(NC(=O)Nc2ccccc2Br)c2nn[nH]c12
- inhibition [10]: 33.1%
- inhibition [11]: 13.2%
- inhibition [1]: 26.5%
- inhibition [2]: -0.4%
- inhibition [3]: 6.16%
- inhibition [4]: 26.6%
- inhibition [12]: 3.06%
- inhibition [13]: -2.75%
- inhibition [7]: 27.1%
- inhibition [8]: -7.18%
- inhibition [14]: 2.97%

Compound: CN1CCCC(n2nc(Cc3ccc(Cl)cc3)c3ccccc3c2=O)CC1 (configuration not stated)
- inhibition [10]: 83.7%
- inhibition [11]: 72.7%
- inhibition [1]: 19.8%
- inhibition [2]: 79.1%
- inhibition [3]: 5.72%
- inhibition [5]: 57.3%
- inhibition [12]: 28.5%
- inhibition [13]: 79.1%
- inhibition [6]: 87.7%
- inhibition [7]: 29.4%
- inhibition [8]: 24.1%
- inhibition [9]: 74.7%
- inhibition [14]: 57.1%

Compound: N[C@H](C(=O)O)c1ccc(C(=O)O)c(C(=O)O)c1
- inhibition [11]: -0.2%
- inhibition [1]: 69.3%
- inhibition [2]: 13.7%
- inhibition [3]: 8.99%
- inhibition [4]: -5.64%
- inhibition [5]: 4.31%
- inhibition [12]: 11.6%
- inhibition [13]: -4.38%
- inhibition [7]: 29.8%
- inhibition [9]: 4.51%

Compound: Cc1nc(-c2ccc(C(F)(F)F)cc2)sc1COc1ccc([C@H](CC(=O)O)c2ccon2)cc1
- inhibition [10]: 4.4%
- inhibition [11]: 69%
- inhibition [1]: 21.4%
- inhibition [2]: 16.7%
- inhibition [4]: 24.6%
- inhibition [5]: 2.18%
- inhibition [12]: 9.74%
- inhibition [13]: -6.48%
- inhibition [7]: -7.02%
- inhibition [8]: -0.99%
- inhibition [9]: 20.3%

Compound: c1cc(CN2CCCNCCNCCCNCC2)ccc1CN1CCCNCCNCCCNCC1
- inhibition [10]: 41.7%
- inhibition [11]: 42.2%
- inhibition [1]: 22.7%
- inhibition [2]: -1.67%
- inhibition [3]: -6.66%
- inhibition [4]: 34.9%
- inhibition [5]: -4.94%
- inhibition [12]: 80.5%
- inhibition [13]: -9.59%
- inhibition [6]: -9.28%
- inhibition [7]: 13.8%
- inhibition [8]: -5.65%

Compound: Cc1cc(C)cc(-c2cnc3cc(Cl)c(-c4cccc(O)c4)cc3c2OCCCN)c1
- inhibition [10]: 8.82%
- inhibition [11]: 81.8%
- inhibition [1]: 48.9%
- inhibition [2]: 37.3%
- inhibition [3]: 64.1%
- inhibition [4]: 19.6%
- inhibition [5]: 59.2%
- inhibition [12]: 10.6%
- inhibition [13]: 25.7%
- inhibition [6]: 28.4%
- inhibition [7]: 75.9%
- inhibition [8]: 72.9%
- inhibition [9]: 59%

Compound: CO[C@@H]1COCC[C@@H]1N[C@@H]1CC[C@@](C(=O)N2CCc3ncc(C(F)(F)F)cc3C2)(C(C)C)C1
- inhibition [11]: 2.58%
- inhibition [1]: -2.04%
- inhibition [2]: 16.4%
- inhibition [3]: 19.6%
- inhibition [4]: 28.2%
- inhibition [5]: 6.08%
- inhibition [12]: 4.46%
- inhibition [6]: -0.61%
- inhibition [7]: 11.2%
- inhibition [8]: 0.19%
- inhibition [9]: 3.16%

Compound: Cc1cn2cc(CC(=O)N3CCC4(CC3)CN(Cc3ccc(-n5nccn5)cc3Cl)C4)nc2s1
- inhibition [10]: 87.5%
- inhibition [11]: 33.4%
- inhibition [1]: 11.6%
- inhibition [2]: 25.1%
- inhibition [3]: 13%
- inhibition [5]: 98.2%
- inhibition [12]: 3.15%
- inhibition [13]: 11%
- inhibition [6]: -6.22%
- inhibition [7]: 21.4%
- inhibition [8]: -4.31%
- inhibition [9]: 17.5%
- inhibition [14]: -5.26%

Compound: Cc1ccccc1N1CCN(S(=O)(=O)C[C@]23CC[C@H](C[C@@H]2NC(=O)[C@@H](N)CCS(C)(=O)=O)C3(C)C)CC1
- inhibition [11]: -3.68%
- inhibition [1]: -9.42%
- inhibition [4]: 0.75%
- inhibition [12]: -8.2%
- inhibition [13]: 11.2%
- inhibition [6]: 19.4%
- inhibition [7]: 15.9%
- inhibition [8]: -6.4%
- inhibition [9]: 0.91%
- inhibition [14]: 7.11%

Compound: N#Cc1c[nH]c2c(C(=O)N3CCN(CCc4ccc(F)cc4)CC3)cccc12
- inhibition [11]: 36.8%
- inhibition [1]: 60.4%
- inhibition [2]: 7.47%
- inhibition [3]: 21.2%
- inhibition [4]: 35.6%
- inhibition [12]: -0.43%
- inhibition [13]: -6.2%
- inhibition [6]: -8.21%
- inhibition [8]: 8.62%
- inhibition [9]: 37.8%
- inhibition [14]: 27.9%

Compound: O=C(O)C1CN(Cc2ccc(OCc3ccc(Cl)c(Cl)c3)cc2)C1
- inhibition [10]: 29.6%
- inhibition [1]: -9.84%
- inhibition [3]: 13.2%
- inhibition [4]: -7.03%
- inhibition [5]: -5.25%
- inhibition [12]: -4.42%
- inhibition [13]: 35.4%
- inhibition [6]: -0.54%
- inhibition [7]: 1.29%
- inhibition [8]: -5.98%
- inhibition [9]: 5.45%

Compound: COc1ccc(CNC(=O)c2cc(-c3cncc(Cl)c3)cnc2-c2ccccn2)nc1OC
- inhibition [11]: 0.01%
- inhibition [1]: 23.7%
- inhibition [2]: 17.4%
- inhibition [3]: -8.5%
- inhibition [4]: 30.3%
- inhibition [5]: -0.37%
- inhibition [12]: -2.53%
- inhibition [13]: -7.15%
- inhibition [6]: 0.56%
- inhibition [7]: 30.5%
- inhibition [8]: 1.18%
- inhibition [9]: 14.4%

Compound: C[N+]1(C)[C@@H]2C[C@@H](OC(=O)C(O)(c3cccs3)c3cccs3)C[C@H]1[C@@H]1O[C@@H]12
- inhibition [10]: 98.8%
- inhibition [11]: -7.35%
- inhibition [1]: 30%
- inhibition [2]: 15.2%
- inhibition [4]: 7.61%
- inhibition [5]: 99.2%
- inhibition [13]: 8.74%
- inhibition [6]: 3.89%
- inhibition [7]: 10.3%
- inhibition [9]: -5.82%

— ChEMBL document CHEMBL5442219
